Test [1] has as its target T1, human wild-type (WT)-pendrin (Homo sapiens, UniProt O43511).
T1 construct: expressed in transfected cells
T1 sequence (O43511 1-780): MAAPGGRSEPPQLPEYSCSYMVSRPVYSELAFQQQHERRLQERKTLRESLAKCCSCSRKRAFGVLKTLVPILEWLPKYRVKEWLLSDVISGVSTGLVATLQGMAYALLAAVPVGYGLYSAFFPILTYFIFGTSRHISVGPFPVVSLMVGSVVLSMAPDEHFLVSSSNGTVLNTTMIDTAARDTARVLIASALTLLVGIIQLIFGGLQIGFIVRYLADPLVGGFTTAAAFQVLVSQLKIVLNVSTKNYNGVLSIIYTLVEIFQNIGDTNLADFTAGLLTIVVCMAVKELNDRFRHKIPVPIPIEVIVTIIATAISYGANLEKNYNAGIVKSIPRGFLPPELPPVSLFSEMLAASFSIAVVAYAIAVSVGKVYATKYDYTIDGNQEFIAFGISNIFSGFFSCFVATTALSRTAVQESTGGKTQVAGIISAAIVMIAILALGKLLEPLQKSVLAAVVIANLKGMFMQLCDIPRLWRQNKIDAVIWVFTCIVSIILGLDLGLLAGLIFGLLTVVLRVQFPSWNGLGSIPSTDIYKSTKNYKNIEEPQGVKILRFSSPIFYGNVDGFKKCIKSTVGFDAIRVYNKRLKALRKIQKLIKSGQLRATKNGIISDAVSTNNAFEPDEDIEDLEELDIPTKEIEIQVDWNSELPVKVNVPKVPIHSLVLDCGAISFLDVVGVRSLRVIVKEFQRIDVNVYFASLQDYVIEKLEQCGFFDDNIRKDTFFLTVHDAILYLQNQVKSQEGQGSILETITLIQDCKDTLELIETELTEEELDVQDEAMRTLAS
As to the kind of experiment: Pendrin-mediated Cl^−/I^− exchange activity, YFP fluorescence in CHO-K1 cells. It is filed as cell-based. The note with it: for inhibition at 30 µM: CHO-K1, 30 μM, read-out: Pendrin inhibitory activity at 30 μM (%); for IC50: compounds showing pendrin inhibitory activity of 50% or more at 30 μM, read-out: IC50.

In another test the test system is HBE cells. Conditions: IL-13-treated HBE cells; cited from earlier work.

`COC(=O)C(=Cc1ccco1)NC(=O)c1ccc(C(C)(C)C)cc1` [G4, Methyl 2-(4-(tert-butyl)beznamido)-3-(furan-2-yl)acrylate]: the inhibition at 30 µM in test [1] stood at 4.4%.
On to `CC(C)(C)c1ccc(C(=O)NC(=Cc2ccco2)C(=O)O)cc1` [G5, 2-(4-(tert-butyl)benzamido)-3-(furan-2-yl)acrylate], for which, in test [1], the inhibition at 30 µM came to 60.9% and the IC50 came out at 22.6 ± 2.46 µM.
As for `CC(C)(C)OC(=O)C(=Cc1ccc[nH]1)NC(=O)c1ccc(C(C)(C)C)cc1` [G6, tert-butyl 2-(4-(tert-butyl)benzamido)-3-(1H-pyrrol-2-yl)acrylate], the inhibition at 30 µM in test [1] was 4.7%.
As for `CC(C)(C)c1ccc(C(=O)NC(=Cc2ccc[nH]2)C(=O)O)cc1` [G7, 2-(4-(tert-butyl)benzamido)-3-(1H-pyrrol-2-yl)acrylate], in test [1], the “efficacy as pendrin inhibitor compared with F10” value is listed as “lower efficacy than F10”, the inhibition at 30 µM was determined as 82.1% and the IC50 is 6.8 ± 0.66 µM.
As to `CC(C)(C)c1ccc(C(=O)NC(=Cc2ccsc2)C(=O)O)cc1` [G8, 2-(4-(tert-butyl)benzamido)-3-(thiophen-3-yl)acrylate], in test [1], the inhibition at 30 µM was found to be 68.8% and the IC50 is 20.2 ± 2.12 µM.
For the molecule `Cc1ncsc1C=C(NC(=O)c1ccc(C(C)(C)C)cc1)C(=O)O` [G9, 2-(4-(tert-butyl)benzamido)-3-(4-methylthiazol-5-yl)acrylate], the inhibition at 30 µM in test [1] is 3.9%.
For the molecule `Cn1cc(C=C(NC(=O)c2ccc(C(C)(C)C)cc2)C(=O)O)cn1` [G10, 2-(4-(tert-butyl)benzamido)-3-(1-methyl-1H-pyrazol-4-yl)acrylate], the inhibition at 30 µM in test [1] is 4.3%.
Consider `CCCCc1ccc(C(=O)NC(=Cc2ccc[nH]2)C(=O)OC)cc1` [G11, Methyl 2-(4-butylbenzamido)-3-(1H-pyrrol-2-yl)acrylate], for which, in test [1], the inhibition at 30 µM turned out to be 3.5%.
With `CCCCc1ccc(C(=O)NC(=Cc2cccs2)C(=O)O)cc1` [G12, 2-(4-Butylbenzamido)-3-(thiophen-2-yl)acrylate], the inhibition at 30 µM in test [1] worked out at 48.1%.
As to `CC(C)(C)c1ccc(C(=O)NC(=Cc2cccn2-c2ccccc2)C(=O)O)cc1` [G13, 2-(4-(tert-butyl)benzamido)-3-(1-phenyl-1H-pyrrol-2-yl)acrylate], the inhibition at 30 µM in test [1] came to 22.4%.
Take `COC(=O)C(=Cc1cccn1-c1ccccc1)NC(=O)c1ccc(C(C)(C)C)cc1` [G14, Methyl 2-(4-(tert-butyl)benzamido)-3-(1-phenyl-1H-pyrrol-2-yl)acrylate]: the inhibition at 30 µM in test [1] was determined as 2.5%.
`COC(=O)C(=Cc1ccc[nH]1)NC(=O)c1ccc(C(F)(F)F)cc1` [G15, Methyl 3-(1H-pyrrol-2-yl)-2-(4-(trifluoromethyl)benzamido)acrylate]: the inhibition at 30 µM in test [1] amounted to 3.4%.
Turning to `O=C(O)C(=Cc1ccco1)NC(=O)c1ccc(Br)cc1` [G16, 2-(4-Bromobenzamido)-3-(furan-2-yl)acrylate], the “Pendrin inhibitory activity at 30 μM (%)” value in test [1] is recorded as 1.8%.
With `COC(=O)C(=Cc1ccco1)NC(=O)c1ccc(C(F)(F)F)cc1` [G17, Methyl 3-(furan-2-yl)-2-(4-(trifluoromethyl)benzamido)acrylate], the inhibition at 30 µM in test [1] came out at 1.1%.
In the case of `O=C(O)C(=Cc1ccco1)NC(=O)c1ccc(C(F)(F)F)cc1` [G18, 3-(Furan-2-yl)-2-(4-(trifluoromethyl)benzamido)acrylate], the inhibition at 30 µM in test [1] stood at 2.7%.
Turning to `O=C(O)C(=Cc1cccs1)NC(=O)c1ccc(Br)cc1` [G19, 2-(4-Bromobenzamido)-3-(thiophen-2-yl)acrylate], the inhibition at 30 µM in test [1] was determined as 3.9%.
On the same count and under the same terms, next, `COC(=O)C(=Cc1ccco1)NC(=O)c1ccc(Br)cc1` [G20, Methyl 2-(4-bromobenzamido)-3-(furan-2-yl)acrylate]: 3.4%.
Turning to `O=C(O)C(=Cc1ccco1)NC(=O)c1ccc(Br)cc1` [G21, 2-(4-Bromobenzamido)-3-(furan-2-yl)acrylate], in test [1], the “Pendrin inhibitory activity at 30 μM (%)” value was 4.1%.
As to `CCCCc1ccc(C(=O)NC(=Cc2ccc[nH]2)C(=O)O)cc1` [G22, 2-(4-Butylbenzamido)-3-(1H-pyrrol-2-yl)acrylate], in test [1], the inhibition at 30 µM stood at 89.2% and the IC50 stood at 5.3 ± 0.58 µM.
As to `COC(=O)C(=Cc1ccc[nH]1)NC(=O)c1ccc(C(C)(C)C)cc1` [G23, Methyl-2-(4-(tert-butyl)benzamido)-3-(1H-pyrrol-2-yl)acrylate], in test [1], the “Pendrin inhibitory activity at 30 μM (%)” value was 2.7%.
As to `O=C(O)C(=Cc1ccsc1)NC(=O)c1ccc2ccccc2c1` [G24, 2-(2-Naphthamido)-3-(thiophen-3-yl)acrylate], the inhibition at 30 µM in test [1] stood at 1.9%.
Still for that read-out and setting: next, `CC(C)(C)c1ccc(C(=O)NC(=Cc2csc3ccccc23)C(=O)O)cc1` [G25, 3-(Benzo[b]thiophen-3-yl)-2-(4-(tert-butyl)benzamido)acrylate]: 42.1%.
Take `CC(C)Cc1ccc(C(=O)NC(=Cc2ccc[nH]2)C(=O)O)cc1` [G26, 2-(4-Isobutylbenzamido)-3-(1H-pyrrol-2-yl)acrylate]: in test [1], the inhibition at 30 µM stood at 85.6% and the IC50 was 10.2 ± 1.38 µM.
In the case of `Cc1ncsc1C=C(NC(=O)c1cccc2ccccc12)C(=O)O` [G27, 2-(1-Naphthamido)-3-(4-methylthiazol-5-yl)acrylate], the inhibition at 30 µM in test [1] came to 2.2%.
Take `CCCc1ccc(C(=O)NC(=Cc2ccc[nH]2)C(=O)O)cc1` [G28, 2-(4-Propylbenzamido)-3-(1H-pyrrol-2-yl)acrylate]: in test [1], the inhibition at 30 µM is 53.5% and the IC50 worked out at 28.9 ± 2.18 µM.
For `CCCCc1ccc(C(=O)NC(=Cc2ccsc2)C(=O)O)cc1` [G29], in that order: 81.7% and 16.7 ± 1.87 µM.
For `CCCc1ccc(C(=O)NC(=Cc2cccs2)C(=O)O)cc1` [G30, 2-(4-Propylbenzamido)-3-(thiophen-2-yl)acrylate], in test [1], the inhibition at 30 µM turned out to be 29.7%.
As to `Cc1ncsc1C=C(NC(=O)c1ccc(C(C)(C)C)cc1)C(=O)O` [G32, 2-(4-(tert-butyl)benzamido)-3-(4-methylthiazol-5-yl)acrylate], in test [1], the “Pendrin inhibitory activity at 30 μM (%)” value was 2.1%.
With `CC(C)(C)c1ccc(C(=O)NC(=Cc2cc3ccccc3[nH]2)C(=O)O)cc1` [G33, 2-(4-(tert-butyl)benzamido)-3-(1H-indol-2-yl)acrylate], the inhibition at 30 µM in test [1] worked out at 5.4%.
Same read-out and setting: the figure for `CCCc1ccc(C(=O)NC(=Cc2ccco2)C(=O)O)cc1` [G34, 3-(Furan-2-yl)-2-(4-propylbenzamido)acrylate] is 38.2%.
For the molecule `CCCCCc1ccc(C(=O)NC(=Cc2ccco2)C(=O)O)cc1` [G35, 3-(Furan-2-yl)-2-(4-pentylbenzamido)acrylate], in test [1], the inhibition at 30 µM was found to be 94% and the IC50 amounted to 6.1 ± 0.88 µM.
`CCCCOc1ccc(C(=O)NC(=Cc2cccs2)C(=O)O)cc1` [G36, 2-(4-Butoxybenzamido)-3-(thiophen-2-yl)acrylate]: the inhibition at 30 µM in test [1] was 4.8%.
`CCCCCCc1ccc(C(=O)NC(=Cc2cccs2)C(=O)O)cc1` [G37, 2-(4-Hexylbenzamido)-3-(thiophen-2-yl)acrylate]: in test [1], the inhibition at 30 µM was 97.9% and the IC50 came out at 8.2 ± 0.79 µM.
Consider `O=C(O)C(=Cc1cccs1)NC(=O)c1ccc2c(c1)CCC2` [G38, 2-(2,3-Dihydro-1H-indene-5-carboxamido)-3-(thiophen-2-yl)acrylate], for which the inhibition at 30 µM in test [1] worked out at 2.5%.
On the same count and under the same terms, next, `O=C(O)C(=Cc1cccs1)NC(=O)c1ccc(OC(F)F)cc1` [G39, 2-(4-(Difluoromethoxy)benzamido)-3-(thiophen-2-yl)acrylate]: 3.2%.
As to `CCCCCc1ccc(C(=O)NC(=Cc2cccs2)C(=O)O)cc1` [G40, 2-(4-Pentylbenzamido)-3-(thiophen-2-yl)acrylate], in test [1], the inhibition at 30 µM came out at 88.6% and the IC50 was 13.4 ± 1.69 µM.
Consider `CCCCOc1ccc(C(=O)NC(=Cc2ccc[nH]2)C(=O)O)cc1` [G41, 2-(4-Butoxybenzamido)-3-(1H-pyrrol-2-yl)acrylate], for which the inhibition at 30 µM in test [1] worked out at 25.1%.
The same measure, in the same setting: the figure for `Cc1cc(C)cc(C(=O)NC(=Cc2cccs2)C(=O)O)c1` [G42, 2-(3,5-Dimethylbenzamido)-3-(thiophen-2-yl)acrylate] is 2.7%.
As to `Cn1nc(COc2cccc(F)c2)c2c1CCN(C(=O)Nc1ccc(Cl)cc1)C2` [PDSinh-A01], the ASL depth result in the test on HBE cells is recorded as “significantly increased”.

What is called IC50 is the concentration needed to halve the response being measured.

(Values after patent US12691101B2, “Compound and method for preventing or treating of respiratory diseases comprising the same as an active ingredient” (YONSEI UNIVERSITY, UNIVERSITY - INDUSTRY FOUNDATION (UIF), priority 2019, dated 2026).)
